Laboratory results reported in PubChem BioAssay (NCI).
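At the GI50, growth is halved. At the TGI there is no net growth.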

How the values were obtained:
Assay in all cases: NCI anticancer screen, dose series, 384-well format; in the data active means GI50 below about 0.43 µM; inactive means the rest
COLO 205 colon = test system: COLO 205 colon
786-0 renal = test system: 786-0 renal
DU-145 prostate = test system: DU-145 prostate
SR leukemia = test system: SR leukemia
UO-31 renal = test system: UO-31 renal
NCI-H23 lung = test system: NCI-H23 lung
NCI-H322M lung = test system: NCI-H322M lung
OVCAR-4 ovarian = test system: OVCAR-4 ovarian
ACHN renal = test system: ACHN renal
OVCAR-3 ovarian = test system: OVCAR-3 ovarian
M14 melanoma = test system: M14 melanoma
TK-10 renal = test system: TK-10 renal
NCI-H522 lung = test system: NCI-H522 lung
SF-295 CNS = test system: SF-295 CNS
OVCAR-5 ovarian = test system: OVCAR-5 ovarian
T-47D breast = test system: T-47D breast
MCF7 breast = test system: MCF7 breast
PC-3 prostate = test system: PC-3 prostate
IGROV1 ovarian = test system: IGROV1 ovarian
NCI-H460 NSCLC = test system: NCI-H460 NSCLC
HCT-116 colon = test system: HCT-116 colon
RXF 393 renal = test system: RXF 393 renal
NCI-H226 lung = test system: NCI-H226 lung
HS 578T breast = test system: HS 578T breast
SK-OV-3 ovarian = test system: SK-OV-3 ovarian
CAKI-1 renal = test system: CAKI-1 renal
MALME-3M melanoma = test system: MALME-3M melanoma
SNB-19 CNS = test system: SNB-19 CNS
SW-620 colon = test system: SW-620 colon
HT29 colon = test system: HT29 colon
MOLT-4 leukemia = test system: MOLT-4 leukemia
EKVX NSCLC = test system: EKVX NSCLC
NCI/ADR-RES ovarian = test system: NCI/ADR-RES ovarian
SK-MEL-5 melanoma = test system: SK-MEL-5 melanoma
MDA-MB-231 breast = test system: MDA-MB-231 breast
HCT-15 colon = test system: HCT-15 colon
K-562 leukemia = test system: K-562 leukemia
MDA-MB-468 breast = test system: MDA-MB-468 breast
RPMI-8226 leukemia = test system: RPMI-8226 leukemia
CCRF-CEM leukemia = test system: CCRF-CEM leukemia
HL-60(TB) leukemia = test system: HL-60(TB) leukemia
HOP-62 NSCLC = test system: HOP-62 NSCLC
A549 NSCLC = test system: A549 NSCLC
HOP-92 NSCLC = test system: HOP-92 NSCLC
SK-MEL-28 melanoma = test system: SK-MEL-28 melanoma
KM12 colon = test system: KM12 colon
SN12C renal = test system: SN12C renal
SF-539 CNS = test system: SF-539 CNS
SNB-75 CNS = test system: SNB-75 CNS
UACC-257 melanoma = test system: UACC-257 melanoma
SF-268 CNS = test system: SF-268 CNS
U251 glioblastoma = test system: U251 glioblastoma
OVCAR-8 ovarian = test system: OVCAR-8 ovarian
HCC-2998 colon = test system: HCC-2998 colon
BT-549 breast = test system: BT-549 breast
A498 renal = test system: A498 renal
LOX IMVI melanoma = test system: LOX IMVI melanoma

Cc1ccccc1CN1CC2=C(CCN(Cc3ccccc3)C2=O)N2CCN=C12
5.71 µM: TGI (OVCAR-3 ovarian)
9.62 µM: TGI (MDA-MB-231 breast)
3.39 µM: TGI (MOLT-4 leukemia)
2.45 µM: TGI (SR leukemia)
9.29 µM: TGI (NCI-H460 NSCLC)
70.9 µM: TGI (NCI-H522 lung)
66.4 µM: TGI (BT-549 breast)
22.8 µM: TGI (HCC-2998 colon)
3.17 µM: TGI (SF-295 CNS)
6.21 µM: TGI (U251 glioblastoma)
20.2 µM: TGI (HS 578T breast)
24.9 µM: TGI (SNB-75 CNS)
14.1 µM: TGI (COLO 205 colon)
23.3 µM: TGI (SF-539 CNS)
7.97 µM: TGI (NCI-H23 lung)
2.9 µM: TGI (SK-MEL-5 melanoma)
63.1 µM: TGI (NCI-H226 lung)
36.9 µM: TGI (SK-OV-3 ovarian)
7.8 µM: TGI (NCI/ADR-RES ovarian)
88.4 µM: TGI (LOX IMVI melanoma)
28 µM: TGI (RXF 393 renal)
4.99 µM: TGI (OVCAR-4 ovarian)
10.5 µM: TGI (MALME-3M melanoma)
> 100 µM: TGI (786-0 renal) | TGI (DU-145 prostate) | TGI (UO-31 renal) | TGI (NCI-H322M lung) | TGI (ACHN renal) | TGI (M14 melanoma) | TGI (TK-10 renal) | TGI (OVCAR-5 ovarian) | TGI (MCF7 breast) | TGI (PC-3 prostate) | TGI (IGROV1 ovarian) | TGI (HCT-116 colon) | TGI (CAKI-1 renal) | TGI (SNB-19 CNS) | TGI (SW-620 colon) | TGI (HT29 colon) | TGI (EKVX NSCLC) | TGI (HCT-15 colon) | TGI (K-562 leukemia) | TGI (CCRF-CEM leukemia) | TGI (A549 NSCLC) | TGI (HOP-92 NSCLC) | TGI (SK-MEL-28 melanoma) | TGI (KM12 colon) | TGI (SN12C renal) | TGI (SF-268 CNS) | TGI (OVCAR-8 ovarian) | TGI (A498 renal)
active: GI50 (MDA-MB-468 breast) 0.363 µM | GI50 (RPMI-8226 leukemia) 0.203 µM | GI50 (HL-60(TB) leukemia) 0.186 µM
7.9 µM: TGI (HOP-62 NSCLC)
1.32 µM: TGI (MDA-MB-468 breast)
0.382 µM: TGI (RPMI-8226 leukemia)
inactive: GI50 (COLO 205 colon) 2.88 µM | GI50 ([…]-0 renal) 4.14 µM | GI50 (DU-145 prostate) 3.11 µM | GI50 (SR leukemia) 1 µM | GI50 (UO-31 renal) 5.97 µM | GI50 (NCI-H23 lung) 2.14 µM | GI50 (NCI-H322M lung) 3.34 µM | GI50 (OVCAR-4 ovarian) 1.08 µM | GI50 (ACHN renal) 6.02 µM | GI50 (OVCAR-3 ovarian) 2.06 µM | GI50 (M14 melanoma) 3.28 µM | GI50 (TK-10 renal) 6.47 µM | GI50 (NCI-H522 lung) 2.38 µM | GI50 (SF-295 CNS) 0.7 µM | GI50 (OVCAR-5 ovarian) 3.5 µM | GI50 (T-47D breast) 2 µM | GI50 (MCF7 breast) 3.12 µM | GI50 (PC-3 prostate) 2.81 µM | GI50 (IGROV1 ovarian) 53.8 µM | GI50 (NCI-H460 NSCLC) 2.61 µM | GI50 (HCT-116 colon) 1.9 µM | GI50 (RXF 393 renal) 4.17 µM | GI50 (NCI-H226 lung) 3.42 µM | GI50 (HS 578T breast) 2.23 µM | GI50 (SK-OV-3 ovarian) 3.44 µM | GI50 (CAKI-1 renal) 3.97 µM | GI50 (MALME-3M melanoma) 3.69 µM | GI50 (SNB-19 CNS) 2.98 µM | GI50 (SW-620 colon) 5.69 µM | GI50 (HT29 colon) 12 µM | GI50 (MOLT-4 leukemia) 1.7 µM | GI50 (EKVX NSCLC) 3.3 µM | GI50 (NCI/ADR-RES ovarian) 1.39 µM | GI50 (SK-MEL-5 melanoma) 1.19 µM | GI50 (MDA-MB-231 breast) 2.83 µM | GI50 (HCT-15 colon) 1.78 µM | GI50 (K-562 leukemia) 0.631 µM | GI50 (CCRF-CEM leukemia) 1.04 µM | GI50 (HOP-62 NSCLC) 1.36 µM | GI50 (A549 NSCLC) 4.2 µM | GI50 (HOP-92 NSCLC) 4.3 µM | GI50 (SK-MEL-28 melanoma) 4.55 µM | GI50 (KM12 colon) 6.87 µM | GI50 (SN12C renal) 3.45 µM | GI50 (SF-539 CNS) 3.54 µM | GI50 (SNB-75 CNS) 2.9 µM | GI50 (UACC-257 melanoma) 1.13 µM | GI50 (SF-268 CNS) 3.99 µM | GI50 (U251 glioblastoma) 1.8 µM | GI50 (OVCAR-8 ovarian) 0.796 µM | GI50 (HCC-2998 colon) 2.66 µM | GI50 (BT-549 breast) 4.06 µM | GI50 (A498 renal) 4.56 µM | GI50 (LOX IMVI melanoma) 2.09 µM
0.547 µM: TGI (HL-60(TB) leukemia)
3.11 µM: TGI (UACC-257 melanoma)
9.66 µM: TGI (T-47D breast)
